Results on 9 compounds are retold here after patent US10882837B2, “Amide compounds and use thereof” (ALPHALA CO., LTD., priority 2017, dated 2021).

For assay [1], the target named is T1, GCGR (Homo sapiens, UniProt P47871). The assay is described as follows: I125-glucagon binding assay (competition, GCGR membrane fractions). More on the design: expressed in transfected cells; host or cells: CHO-K1. As to conditions: competition with I125-glucagon 0.0625 nM; membrane fractions from GCGR overexpressed CHO-K1 cells. Put shortly:
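Membranes from CHO-K1 cells overexpressing GCGR (7.5 µg/well) were preincubated 5 min with serially diluted compound in 50 mM Tris pH 7.4, 0.5% BSA. I125-glucagon was then added at 0.0625 nM final and incubated 30 min at 25 °C. After filtration, bound radioactivity was counted and IC50 derived by non-linear regression.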
Target sequence in this assay (P47871 26-477, species assumed): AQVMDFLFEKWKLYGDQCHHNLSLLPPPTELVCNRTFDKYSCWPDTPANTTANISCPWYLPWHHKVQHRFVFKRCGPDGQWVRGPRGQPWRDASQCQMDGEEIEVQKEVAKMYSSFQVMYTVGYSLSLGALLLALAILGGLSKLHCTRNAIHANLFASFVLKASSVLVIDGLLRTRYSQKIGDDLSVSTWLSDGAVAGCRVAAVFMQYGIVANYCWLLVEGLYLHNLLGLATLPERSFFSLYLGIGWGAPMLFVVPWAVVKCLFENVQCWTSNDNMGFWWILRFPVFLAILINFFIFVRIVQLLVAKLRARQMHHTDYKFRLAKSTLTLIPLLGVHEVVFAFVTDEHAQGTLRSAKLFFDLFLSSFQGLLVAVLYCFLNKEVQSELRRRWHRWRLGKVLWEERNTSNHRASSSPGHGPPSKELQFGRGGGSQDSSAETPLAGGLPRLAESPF

Assay [2] has as its target T1, GCGR. The experiment in a line: HTRF cAMP assay in primary human hepatocytes stimulated with recombinant glucagon. In kind it is cell-based. More on the design: endogenous in cells; host or cells: primary human hepatocytes. The protocol:
Downstream secondary messenger eAMP induced by glucagon was detected by Cisbio cAMP Dynamic 2 kit. Testing compounds were each prepared as a dimethyl sulfoxide (DMSO) solution at the concentration of 10 mM. To evaluate the potency of compounds in inhibiting the cAMP production, glucagon receptor (GCGR) overexpressed CHO-K1 cells or human primary hepatocytes were treated with compounds with a serial dilution. The cells were re-suspended in Hank's Balanced Salt solution (HBSS) contained 0.1% (w/v) bovine serum albumin and 800 nM 3-isobutyl-1-methylxanthine (IBMX) and seeded into low volume, 384 wells white plate. The diluted compounds were then added into the plate for 30 minutes pre-incubation where the final DMSO concentration was 1%. The cells were stimulated with glucagon at the concentration equaled to EC50 (an indicium of the concentration of a drag that gives half-maximal response) for 30 minutes at room temperature. After incubation, lysis buffer contain cAMP antibody and fluorescence acceptor were added into each well for additional 60 minutes incubation.
The HTRF cAMP assay was performed by following the manufacturer guidance. Primary human hepatocytes, pre-incubated with tested compounds at various concentrations, were stimulated with recombinant glucagon and the IC50 values were determined by the non-linear regression based on the amount of cAMP production.
Target sequence in this assay (P47871 26-477): as the sequence (P47871 26-477, species assumed) above

A further assay deals with T2, glucagon receptor (GCGR) (Homo sapiens, UniProt P47871).
T2 construct: expressed in transfected cells; host or cells: CHO-K1
T2 sequence (P47871 26-477, species assumed): as above
The assay is described as follows: Glucagon cAMP inhibition assay (Cisbio cAMP Dynamic 2 HTRF). As to conditions: GCGR overexpressed CHO-K1 cells or human primary hepatocytes (not specified); glucagon at EC50. Type of assay: cell-based. The method, boiled down:
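GCGR-overexpressing CHO-K1 cells or human primary hepatocytes in HBSS with 0.1% BSA and 800 nM IBMX, pre-incubated 30 min with compound (1% DMSO final), then stimulated 30 min at room temperature with glucagon at its EC50. cAMP measured by HTRF after 60 min lysis; IC50 from non-linear regression.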

On to `CCC(C)[C@H](Nc1ccc(C(=O)NCCC(=O)O)cc1)c1ccc(-c2nnc(-c3ccccc3)o2)cc1` (stereo partly drawn) [Compound 1-49, 3-(4-(((1S)-2-methyl-1-(4-(5-phenyl-1,3,4-oxadiazol-2-yl)phenyl)butyl)amino)benzamido)propanoic acid], for which the IC50 on GCGR [1] turned out to be 92 nM; at GCGR [2], 19 nM; against glucagon receptor (GCGR), 2050 nM.
The corresponding values for `CCC(C)[C@H](Nc1ccc(C(=O)NCCC(=O)O)cc1)c1ccc(-c2noc(-c3ccccc3)n2)cc1` (stereo partly drawn) [Compound 2-19, 3-(4-(((1S)-2-methyl-1-(4-(5-phenyl-1,2,4-oxadiazol-3-yl)phenyl)butyl)amino)benzamido)propanoic acid] are 49 nM, 15 nM and 473 nM.
The like results for `CC(C)[C@H](Nc1ccc(C(=O)NCCC(=O)O)cn1)c1ccc(-c2nc3ccccc3s2)cc1` [Compound 4-28, (S)-3-(6-((1-(4-(benzo[d]thiazol-2-yl)phenyl)-2-methylpropyl)amino)nicotinamido)propanoic acid] were, in that order, 47.7 nM, 62 nM and 2690 nM.
The like results for `CC(C)[C@H](Nc1ccc(C(=O)NCCC(=O)O)cn1)c1ccc(-c2nc3ccccc3o2)cc1` [Compound 4-30, (S)-3-(6-((1-(4-(benzo[d]oxazol-2-yl)phenyl)-2-methylpropyl)amino)nicotinamido)propanoic acid] were, in that order, 41.8 nM, 53 nM and 2380 nM.
As for `CC(C)C(Oc1ccc(C(=O)NCCC(=O)O)cc1)c1ccc(-c2nc3ccccc3s2)cc1` (stereo not shown) [Compound 6-2, 3-(4-(1-(4-(Benzo[d]thiazol-2-yl)phenyl)-2-methylpropoxy)benzamido)propanoic acid], the results for the IC50 at GCGR [1] and against glucagon receptor (GCGR) were 1110 nM and 133 nM, respectively.
Turning to `CCOC(=O)CCNC(=O)c1ccc(C(Oc2ccc(-c3nc4ccccc4o3)cc2)C(C)C)cc1` (stereo not shown) [Compound 7-1, Ethyl 3-(4-(1-(4-(benzo[d]oxazol-2-yl)phenoxy)-2-methylpropyl)benzamido)propanoate], the IC50 at GCGR [1] is more than 30000 nM; against glucagon receptor (GCGR) it was 487 nM.
The corresponding values for `CC(C)C(Oc1ccc(-c2nc3ccccc3o2)cc1)c1ccc(C(=O)NCCC(=O)O)cc1` (stereo not shown) [Compound 7-2, 3-(4-(1-(4-(Benzo[d]oxazol-2-yl)phenoxy)-2-methylpropyl)benzamido)propanoic acid] are 177 nM and 292 nM.
The like results for `CCOC(=O)CCNC(=O)c1ccc(C(Oc2ccc(-c3nc4ccccc4s3)cc2)C(C)C)cc1` (stereo not shown) [Compound 7-3, Ethyl 3-(4-(1-(4-(benzo[d]thiazol-2-yl)phenoxy)-2-methylpropyl)benzamido)propanoate] were, in that order, 2110 nM and 292 nM.
The like results for `CC(C)C(Oc1ccc(-c2nc3ccccc3s2)cc1)c1ccc(C(=O)NCCC(=O)O)cc1` (stereo not shown) [Compound 7-4, 3-(4-(1-(4-(Benzo[d]thiazol-2-yl)phenoxy)-2-methylpropyl)benzamido)propanoic acid] were, in that order, 208 nM and 209 nM.
